From US20170332910A1, “MODIFIED PARAMAGNETIC NANOPARTICLES FOR TARGETED DELIVERY OF THERAPEUTICS AND METHODS THEREOF” (ALBERT EINSTEIN COLLEGE OF MEDICINE, INC., priority 2014, published 2017)
One block for each compound: values may come before it.

Tests used:
MDA-MB-436 = experiment: Tumor necrosis in MDA-MB-436 xenografts; format: in vivo, mouse; conditions: 1.0 mg/kg
[1] = system: xenografted human breast cancer; experiment: ADM-PMNP plus magnetic field on xenografted human breast cancer (bioluminescence); format: in vivo, mouse; conditions: comparable amount of free drug
Protocol: FIG. 8 Anti-tumor effect of IV infused Adriamycin loaded PMNP (ADM-PMNP) plus magnetic field treatment on xenografted human breast cancer. Human breast cancer was s.c. xenografted in a female nude mouse. The mouse was injected with 1 mg/kg ADM-PMNP and the tumor was treated with magnetic field for 30 minutes following each injection The mouse was imaged before and after the treatment, the luminescent signals were quantitatively analyzed for change of tumor size. At the end of the treatment, there was a >80% decrease of luminescent signaling in the tumor. The signal recovered partially 3 days after the treatment was ended.
Signal intensity in treated tumor was similar to that in bladder, a major route of PMNP elimination. Next, to assess drug delivery and anti-tumor efficacy, MoB-1833 mammary xenografted tumor-bearing mice were infused with ADM-coated PMNP (ADM-PMNP). ADM use in chemotherapy is limited due to systemic toxicity and it is therefore an excellent model drug for evaluation of the potentially utility of our PMNP platform. […] This ADM dose is 5-20 times lower than doses of free ADM commonly used for in animal studies and similar to doses used clinically. The 4-day treatment achieved a 9-fold reduction in tumor mass (FIG. 8). Tumor rebound upon drug termination confirmed specificity of the drug effect. […] The necrosis was confirmed histologically (FIG. 9Bd-f). […]

[2] = Histopathological analysis of multiple tissues (toxicity); format: in vivo, mouse; conditions: 1 mg/kg
Protocol: FIGS. 11(A-B). Systemic effect of the treatment. (A) Representative H&E staining of tissue sections from ADM-PMNP injected mice (1 mg/kg BW)(A). (B) inflammation and hyperplasia were found in colon from mice treated with free ADM (B-left) but not in mice injected with the same dose of ADM-PMNP (B-right).

[3] = system: human glioblastoma (GBM43); experiment: LPS-PMNPs and oral temozolomide, survival and drug delivery; format: in vivo, mouse; conditions: oral 20 mg/kg after LPS-PMNP with magnetic field; relative to groups 1-3
Protocol: In this study, human glioblastoma (GBM43) were again maintained as subcutaneous xenografts. The tumor cells from subcutaneous xenografts were transfer to the intracranial compartment. Cells were suspended in DMEM media at 1×10^5 cells/μL for intracranial injection. 3 μL of tumor cell suspension (3×10^5 cells total) were injected into the right caudate putamen of 6 week-old female athymic mice (nu/nu). Prior to injection, the mice were anesthetized IP (intraperitoneal injection) (ketamine/xylazine). PMNPs (10 mg/kg) with and without LPS were administered via tail vein. 6 hours after administration of PMNPs, 20 mg/kg temozolomide (TMZ) was administrated as oral suspension in a vehicle containing 2.5 mg/ml Povidone K30, 0.015% citric acid, 50% Ora-Plus, 50% Ora-Sweet SF (Paddock Labs Minneapolis, Minn.) on days 12, 18, 24, and 30. The treatment groups were: 1) control (no TMZ); 2) TMZ alone; 3) LPS-PMNP plus TMZ (without magnetic field); and 4) LPS-PMNP plus TMZ with magnetic field (strong localized magnetic field applied to tumor area). The mice were euthanized as the symptoms from the increasing tumor burden prevented access to food/water.

[4] = system: U87 human glioblastoma cells; experiment: Cell viability assay (Presto Blue); format: cell-based; conditions: 48 h incubation
Protocol: FIG. 22 Cytotoxicity of naked curcumin, curcumin conjugated PMNPs and Sol-Gel Nps and blanks (without curcumin) performed on U87 human glioblastoma cells after 48 hours of incubation. Note that 1 μM equivalent curcumin concentration corresponds to 16.7 μg/mL of nanoparticles. […] The data represents the mean±SE, n=3 to 18.
Cells were plated in 24-well trays and allowed to become confluent then incubated with naked curcumin or different curcumin NP concentrations for 48 h. Cell viability was quantified using Presto Blue (Invitrogen) an assay that contains a cell permeable resazurin-based solution that is modified by the reducing environment of the viable cell becoming highly fluorescent. Using a plate reader, cell viability was quantified after 0.5-1 hours of incubation with Presto Blue. All measurements were always accompanied by control wells and by calibration wells to account for background fluorescence using the same culture media and the same NP concentrations without the cells.
U-87 used as an vitro model of human glioblastoma were incubated with either Curcumin or Curcumin loaded NPs.

[5] = system: human breast cancer xenographs; experiment: MRI of magnetic field induced localization of gadolinium oxide based PMNPs; format: in vivo, mouse
Protocol: FIGS. 3(A-D). […] By applying a magnet field for 30 minutes at hind end (blue arrows), the enhanced image of hind-end tumor is observed (3B). The enhanced image of the tumor persists for at least several hours. […] The PMNPs are concentrated at site of a lower abdominal mammary tumor (FIG. 3C) using an external magnetic field placed over the tumor for 30 minutes. […] Imaging was performed over several hours without taking the mouse out of MRI machine thereby maintaining all of the imaging parameters.
FIGS. 4(A-B). Compares the MRI contrast data between […] (gadopentetate dimeglumine) and gadolinium oxide-based PMNPs.
In FIG. 3 are presented results on magnetic immobilization of gadolinium-based PMNPs in a mouse with numerous human breast cancer xenographs. There is no image enhancement for any of the multiple tumors located in different parts of the mouse including one at hind end (green-arrow at bottom of the picture marked tumor). The mouse was then removed and then subjected to thirty minutes of having a magnetic field placed over the tumor demarked by the green arrow. […] The intensity of MRI signal is very similar at both tumor and bladder. This is very different than observed in case of […] where there is a transient image of the bladder and no site specific localization of the contrast agent in any one of the tumors. […]

[6] = system: human glioblastoma (GBM43); experiment: Effect of LPS-PMNPs on delivery of irinotecan, intracranial glioblastoma; format: in vivo, mouse; conditions: LPS-PMNP plus magnetic field vs groups 1 and 2, 24 hours after dose on day 18
Protocol: In this study, human glioblastoma (GBM43) were maintained as subcutaneous xenografts. The tumor cells from subcutaneous xenografts were transfer to the intracranial compartment. Cells were suspended in DMEM media at 1×10^5 cells/μL for intracranial injection. 3 μL of tumor cell suspension (3×10^5 cells total) were injected into the right caudate putamen of 6 week-old female athymic mice (nu/nu). Prior to injection, the mice were anesthetized IP (intraperitoneal injection) (ketamine/xylazine). 0.4 mg of irinotecan was administrated via tail vein to each mouse on day 12 after implantation of tumor cells, and repeated at days 18, 24, and 30. LPS-PMNPs were administered via tail vein 4 hours prior to administration of irinotecan. All treatment groups received treatment with irinotecan. The treatment groups were: 1) control (without LPS-PMNP treatment); 2) LPS-PMNP (LPS-PMNP treatment without magnetic field); and 3) LPS-PMNP with magnetic field (strong localized magnetic field applied to tumor area). For group 3, the strong localized magnetic field was applied to the tumor cranial area using a conical magnet. […]
The irinotecan content in the brain and the tumor from a mouse in each group was also determined. […] Irinotecan levels in the tumor tissues were measured from homogenized tissues in acidic methanol solution, and measured using an HPLC (eluted peaks, 380/540 nm). […]

[7] = system: TNFα, TGBβ, MCP-1, IL-1α, IL-1β, IL-6, IL-10, and IL-12; experiment: Time-dependent cytokine levels (systemic inflammation); format: in vivo, mice
Protocol: This study monitored the time-dependent changes in various cytokine levels (TNFα, TGBβ, MCP-1, IL-1α, IL-1β, IL-6, IL-10, and IL-12) for LPS-PMNPs (10 mg/kg) in mice with and without magnetic field (i.e., treatment with or without a localized magnet) as compared with free LPS introduced at 10 mg/kg and 2 mg/kg—a lower concentration than for the LPS carried on the PMNPs. The cytokine levels for each group were measured over a 24-hour period, with measurements at baseline, 1 hour, 6 hours, and 24 hours. The four comparison groups were: A) LPS-PMNP (10 mg/kg) without magnetic field; B) LPS-PMNP (10 mg/kg) with magnetic field; C) free LPS (2 mg/kg); and D) free LPS (10 mg/kg).

Compound: COc1cccc2c1C(=O)c1c(O)c3c(c(O)c1C2=O)C[C@@](O)(C(=O)CO)C[C@@H]3O[C@H]1C[C@H](N)[C@H](O)[C@H](C)O1 [Adriamycin, Adriamycin (doxorubicin)]
tumor necrosis (MDA-MB-436): smaller necrotic lesions | anti-tumor effect [1]: relatively ineffective | histopathological findings [2]: colonic inflammation and hyperplasia

Compound: Cn1nnc2c(C(N)=O)ncn2c1=O [TMZ, temozolomide]
TMZ content in the tumor [3]: greater TMZ content in the tumor

Compound: COc1cc(/C=C/C(=O)CC(=O)/C=C/c2ccc(O)c(OC)c2)ccc1O [curcumin, Curcumin]
equivalent curcumin concentration able to significantly decrease cell viability by 20% [4]: 5 µM

persistence of MRI contrast ([5]; mouse, in vivo): short lived | distribution of contrast agent (MRI) ([5]; within a short time, no magnetic field): concentrates in the bladder
Compound: CNC[C@H](O)[C@@H](O)[C@H](O)[C@H](O)CO.CNC[C@H](O)[C@@H](O)[C@H](O)[C@H](O)CO.O=C([O-])CN(CCN(CC(=O)[O-])CC(=O)O)CCN(CC(=O)[O-])CC(=O)O.[Gd+3] [gadopentetate dimeglumine]

irinotecan content in the brain [6]: higher | irinotecan content in the tumor ([6]; HPLC): significantly higher
Compound: CCc1c2c(nc3ccc(OC(=O)N4CCC(N5CCCCC5)CC4)cc13)-c1cc3c(c(=O)n1C2)COC(=O)[C@]3(O)CC [irinotecan]

Compound: lipopolysaccharides [free LPS]
acute inflammation ([7]; 2 mg/kg, compared with LPS-PMNP (10 mg/kg)): substantially greater | inflammation over time ([7]; 10 mg/kg): produced endotoxemia
